In brackets after ≈: the same amount, converted by molar mass. Several values for one entry are separate records, joined by “and”; a condition that tells them apart may be missing. Equal entries are not always repeated. Where only a bound is given, the exact number is not on record here.

Results on 20 compounds are retold here after DBAASP.

Test systems include Escherichia coli; Staphylococcus aureus; Pseudomonas aeruginosa.
Test in all cases: ≥ marks a high value that may be exact or a test limit, other limits are often not marked, values filed in µg/mL are converted to µM
The test system of assay [1] is Escherichia coli ATCC 25922.
Assay [2] deals with Staphylococcus aureus ATCC 25923.

As for `CC[C@H](C)[C@H](NC(=O)[C@H](CCCCN)NC(=O)[C@H](CC(C)C)NC(=O)[C@@H](NC(=O)[C@H](CCCCN)NC(=O)[C@H](C)N)C(C)C)C(=O)N[C@@H](CO)C(=O)N[C@@H](CCCN=C(N)N)C(=O)N[C@@H](CCCN=C(N)N)C(=O)N[C@@H](C)C(=O)N[C@@H](Cc1ccccc1)C(=O)N[C@@H](CCCN=C(N)N)C(=O)N[C@@H](CCCCN)C(N)=O` [AKVLKISRRAFRK], in assay [1], the MIC was 22.5 µM and 63.6 µM. Turning to `CC(C)C[C@H](NC(=O)[C@H](CCC(N)=O)NC(=O)[C@H](CCCCN)NC(=O)[C@H](CCCCN)NC(=O)[C@@H]1CCCN1C(=O)[C@H](C)N)C(=O)N[C@@H](CCCCN)C(=O)N[C@@H](Cc1c[nH]c2ccccc12)C(=O)O` [APKKQLKW], the minimum inhibitory concentration (MIC) in assay [1] amounted to 16 µM (≈ 16 µg/mL). In assay [1], `CC(C)[C@H](NC(=O)[C@H](CC(N)=O)NC(=O)[C@H](CCCCN)NC(=O)[C@H](CCCN=C(N)N)NC(=O)[C@@H]1CCCN1C(=O)[C@H](C)N)C(=O)N[C@@H](CCCCN)C(=O)N[C@@H](Cc1c[nH]c2ccccc12)C(=O)O` [APRKNVKW] gave a minimum inhibitory concentration (MIC) of 64.1 µM (≈ 64 µg/mL). On the same count and under the same terms, in the case of `CC(C)[C@H](NC(=O)[C@H](CC(N)=O)NC(=O)[C@H](CCCCN)NC(=O)[C@H](CCCN=C(N)N)NC(=O)[C@@H]1CCCN1C(=O)[C@H](C)N)C(=O)N[C@@H](CCCN=C(N)N)C(=O)N[C@@H](Cc1ccccc1)C(=O)O` [APRKNVRF] it was 130 µM (≈ 128 µg/mL). As to `CC(C)[C@@H]1NC(=O)[C@@H]2CSSC[C@H](NC(=O)[C@H](Cc3ccc(O)cc3)NC(=O)[C@@H](N)CSSC[C@@H](C(=O)O)NC1=O)C(=O)N[C@@H](CCCN=C(N)N)C(=O)N[C@@H](CCCN=C(N)N)C(=O)N[C@@H](CCCN=C(N)N)C(=O)N[C@@H](Cc1ccccc1)C(=O)N2` [CYCRRRFCVC], in the assay with Escherichia coli, the minimal inhibitory concentration (MIC) was determined as 10.8 µM (≈ 14.1 µg/mL).

In the case of `CC[C@H](C)[C@H](NC(=O)[C@H](C)NC(=O)[C@H](CO)NC(=O)[C@@H](NC(=O)[C@@H](N)Cc1ccccc1)[C@@H](C)CC)C(=O)N[C@@H](C)C(=O)N[C@@H](CO)C(=O)N[C@@H](Cc1ccccc1)C(=O)N[C@@H](CC(C)C)C(=O)NCC(=O)N[C@@H](CCCCN)C(=O)N[C@@H](Cc1ccccc1)C(=O)N[C@@H](CC(C)C)C(=O)O` [FISAIASFLGKFL], the MIC against Staphylococcus aureus was 130 µM (≈ 184 µg/mL).

For `CC(C)C[C@H](NC(=O)[C@H](CC(C)C)NC(=O)[C@H](CCCCN)NC(=O)[C@H](CCCCN)NC(=O)[C@H](CC(C)C)NC(=O)[C@H](Cc1c[nH]c2ccccc12)NC(=O)[C@H](CCCCN)NC(=O)[C@H](CC(C)C)NC(=O)[C@@H](N)Cc1ccccc1)C(N)=O` [FLKWLKKLL], in assay [1], the MIC was 6.73 µM and 13.5 µM.

`CC[C@H](C)[C@H](NC(=O)[C@H](CCCN=C(N)N)NC(=O)[C@H](CCCCN)NC(=O)[C@H](CC(C)C)NC(=O)[C@H](C)NC(=O)CN)C(=O)N[C@@H](CCCCN)C(=O)N[C@H](C(=O)N[C@@H](CC(C)C)C(=O)N[C@@H](CC(C)C)C(N)=O)[C@@H](C)O` [GALKRIKTLL]: the minimal inhibitory concentration (MIC) in assay [2] and in assay [1] was more than 38.7 µM in each case. In the case of `CC[C@H](C)[C@H](NC(=O)CN)C(=O)N[C@@H](Cc1ccccc1)C(=O)N[C@@H](CC(C)C)C(=O)N[C@@H](CC(=O)O)C(=O)N[C@@H](CCCCN)C(=O)N[C@@H](CC(C)C)C(=O)N[C@@H](CCCCN)C(=O)N[C@@H](CC(N)=O)C(=O)N[C@@H](Cc1ccccc1)C(=O)N[C@@H](C)C(=O)N[C@@H](CCCCN)C(=O)NCC(=O)N[C@H](C(=O)N[C@@H](C)C(=O)N[C@@H](CCC(N)=O)C(=O)N[C@@H](CO)C(=O)N[C@@H](CC(C)C)C(=O)N[C@@H](CC(C)C)C(=O)N[C@@H](CC(N)=O)C(=O)N[C@@H](CCCCN)C(=O)N[C@@H](C)C(=O)N[C@@H](CO)C(=O)N[C@H]1CSSC[C@@H](C(=O)O)NC(=O)[C@H](CCC(N)=O)NC(=O)CNC(=O)[C@H](CO)NC(=O)[C@H](CC(C)C)NC(=O)[C@H](CCCCN)NC1=O)C(C)C` [GIFLDKLKNFAKGVAQSLLNKASCKLSGQC], in assay [1], the MIC was 2 µM (≈ 6.36 µg/mL).

For the compound `CC[C@@H](C)[C@H](N=C(O)[C@H](CCCCN)N=C(O)[C@H](CS)N=C(O)[C@H](CCCCN)N=C(O)[C@H](CC(C)C)N=C(O)CN=C(O)C(CCC(=O)O)N=C(O)[C@H](CC(C)C)N=C(O)[C@H](CCCCN)N=C(O)CN=C(O)[C@H](C)N=C(O)[C@H](N=C(O)[C@H](CC(=O)O)N=C(O)[C@H](CCCCN)N=C(O)[C@H](C)N=C(O)[C@H](C)N=C(O)CN=C(O)C(CCCCN)N=C(O)C(CC(C)C)N=C(O)[C@H](N=C(O)C(CC(=O)O)N=C(O)[C@H](CC(C)C)N=C(O)[C@H](Cc1ccccc1)N=C(O)C(CC(C)C)N=C(O)CN)C(C)O)C(C)C)C(O)=N[C@H](C(O)=NCC(O)=N[C@H](CS)C(O)=N[C@H](CCCCN)C(O)=N[C@H](CC(C)C)C(=O)N1CCCC1C(=O)O)[C@@H](C)O` (stereo not given in full) [GLFLDTLKGAAKDVAGKLEGLKCKITGCKLP], the MIC against Staphylococcus aureus amounted to 60 µM (≈ 191 µg/mL). On to `CC[C@H](C)[C@H](NC(=O)[C@H](CCCN=C(N)N)NC(=O)[C@H](C)NC(=O)[C@H](CC(C)C)NC(=O)[C@H](CC(C)C)NC(=O)CN)C(=O)N[C@@H](CCCCN)C(=O)N[C@H](C(=O)N[C@@H](CC(C)C)C(=O)N[C@@H](CC(C)C)C(N)=O)[C@@H](C)O` [GLLARIKTLL], for which the MIC in assay [2] was 25.5 µM (≈ 28 µg/mL); in assay [1], 14.6 µM (≈ 16 µg/mL).

Take `CC[C@H](C)[C@H](NC(=O)[C@H](CC(N)=O)NC(=O)[C@H](CCCCN)NC(=O)[C@H](CC(C)C)NC(=O)[C@H](CC(C)C)NC(=O)CN)C(=O)N[C@@H](CCCCN)C(=O)N[C@H](C(=O)N[C@@H](CC(C)C)C(=O)N[C@@H](CC(C)C)C(N)=O)[C@@H](C)O` [GLLKNIKTLL]: the MIC came to 62 µM (≈ 68.9 µg/mL) in assay [2] and 30.6 µM (≈ 34 µg/mL) in assay [1].

In the case of `CC[C@H](C)[C@H](NC(=O)[C@H](C)NC(=O)CNC(=O)[C@H](C)NC(=O)[C@H](CCCCN)NC(=O)[C@H](CO)NC(=O)[C@H](C)NC(=O)[C@H](CCSC)NC(=O)CN)C(=O)N[C@@H](C)C(=O)NCC(=O)N[C@@H](CCCCN)C(=O)N[C@H](C(=O)N[C@@H](C)C(=O)N[C@@H](CCCCN)C(=O)N[C@H](C(=O)N[C@@H](C)C(=O)N[C@@H](CC(C)C)C(=O)N[C@@H](CCCCN)C(=O)N[C@@H](C)C(=O)N[C@@H](CC(C)C)C(=O)NCC(=O)NCC(=O)N[C@@H](CS)C(N)=O)C(C)C)[C@@H](C)CC` [GMASKAGAIAGKIAKVALKALGGC], the MIC in assay [1] is 6.3 µM (≈ 13.8 µg/mL). The same measure, in the same setting: in the case of `CC[C@H](C)[C@H](NC(=O)[C@H](C)NC(=O)CNC(=O)[C@H](C)NC(=O)[C@H](CCCCN)NC(=O)[C@H](CO)NC(=O)[C@H](C)NC(=O)[C@H](CCSC)NC(=O)CN)C(=O)N[C@@H](C)C(=O)NCC(=O)N[C@@H](CCCCN)C(=O)N[C@H](C(=O)N[C@@H](C)C(=O)N[C@@H](CCCCN)C(=O)N[C@H](C(=O)N[C@@H](C)C(=O)N[C@@H](Cc1c[nH]c2ccccc12)C(=O)N[C@@H](CCCCN)C(=O)N[C@@H](C)C(=O)N[C@@H](CC(C)C)C(=O)NCC(=O)NCC(=O)N[C@@H](CO)C(N)=O)C(C)C)[C@@H](C)CC` [GMASKAGAIAGKIAKVAWKALGGS] it was 12.5 µM (≈ 28 µg/mL); in that of `CC[C@H](C)[C@H](NC(=O)[C@H](CCCN=C(N)N)NC(=O)[C@H](CCCCN)NC(=O)[C@H](CC(C)C)NC(=O)[C@H](CCSC)NC(=O)CN)C(=O)N[C@@H](CCCCN)C(=O)N[C@H](C(=O)N[C@@H](CC(C)C)C(=O)N[C@@H](CC(C)C)C(N)=O)[C@@H](C)O` [GMLKRIKTLL], 200 µM (≈ 234 µg/mL). Same read-out and setting: the value for `CC(C)C[C@H](NC(=O)[C@H](Cc1ccccc1)NC(=O)[C@@H]1CCCN1C(=O)[C@H](Cc1c[nH]c2ccccc12)NC(=O)[C@H](Cc1c[nH]c2ccccc12)NC(=O)[C@H](Cc1c[nH]c2ccccc12)NC(=O)[C@@H]1CCCN1C(=O)[C@H](Cc1ccccc1)NC(=O)[C@H](CCCN=C(N)N)NC(=O)[C@H](CCCN=C(N)N)NC(=O)[C@@H](NC(=O)[C@@H](NC(=O)CN)[C@@H](C)O)C(C)C)C(=O)N[C@@H](CCCN=C(N)N)C(=O)N[C@@H](CCCN=C(N)N)C(=O)O` [GTVRRFPWWWPFLRR] was 8 µM (≈ 16.5 µg/mL). Take `C[C@@H](O)[C@H](NC(=O)[C@H](CO)NC(=O)[C@H](CO)NC(=O)[C@@H](N)CCCCN)C(=O)N[C@@H](CCCN=C(N)N)C(=O)NCC(=O)N[C@@H](CCCN=C(N)N)C(=O)N[C@@H](CCCCN)C(=O)N[C@@H](CO)C(=O)N[C@@H](CO)C(=O)N[C@@H](CCCN=C(N)N)C(=O)N[C@@H](CCCN=C(N)N)C(=O)N[C@@H](CCCCN)C(=O)N[C@@H](CCCCN)C(=O)O` [KSSTRGRKSSRRKK]: the figures for the MIC in assay [2] and in assay [1] were more than 308 µM and 120 µM (≈ 200 µg/mL), respectively. On to `CC[C@H](C)[C@H](NC(=O)[C@H](Cc1ccc(O)cc1)NC(=O)[C@H](Cc1c[nH]c2ccccc12)NC(=O)[C@H](CC(C)C)NC(=O)[C@H](Cc1c[nH]c2ccccc12)NC(=O)[C@H](CCCN=C(N)N)NC(=O)[C@@H](NC(=O)[C@@H](NC(=O)[C@H](CCCN=C(N)N)NC(=O)[C@H](Cc1ccccc1)NC(=O)[C@H](Cc1c[nH]c2ccccc12)NC(=O)[C@H](CCCN=C(N)N)NC(=O)[C@H](Cc1c[nH]c2ccccc12)NC(=O)[C@H](CC(C)C)NC(=O)[C@H](CCCN=C(N)N)NC(=O)[C@H](C)NC(=O)[C@H](Cc1c[nH]c2ccccc12)NC(=O)[C@@H](N)CCCCN)[C@@H](C)CC)[C@@H](C)O)C(=O)N[C@@H](CCCCN)C(N)=O` [KWARLWRWFRITRWLWYIK], for which the minimal inhibitory concentration (MIC) against Staphylococcus aureus and against Escherichia coli was more than 36.2 µM throughout. In the case of `CC[C@H](C)[C@H](NC(=O)[C@H](Cc1ccccc1)NC(=O)[C@H](CO)NC(=O)[C@H](CCCCN)NC(=O)[C@H](Cc1c[nH]c2ccccc12)NC(=O)[C@@H](N)CCCCN)C(=O)N[C@@H](CCCCN)C(=O)N[C@@H](CCCCN)C(=O)N[C@@H](CO)C(=O)N[C@H](C(=O)N[C@@H](CO)C(=O)N[C@@H](CCCCN)C(=O)N[C@@H](Cc1ccccc1)C(=O)N[C@@H](CC(C)C)C(=O)N[C@@H](Cc1cnc[nH]1)C(=O)N[C@@H](CO)C(=O)N[C@@H](C)C(=O)N[C@@H](CCCCN)C(=O)N[C@@H](CCCCN)C(=O)N[C@@H](Cc1ccccc1)C(N)=O)[C@@H](C)O` [KWKSFIKKSTSKFLHSAKKF], the MIC against Pseudomonas aeruginosa was 20.6 µM (≈ 50 µg/mL). That is a double-digit micromolar value. As to `CC(C)C[C@H](NC(=O)[C@H](CCC(N)=O)NC(=O)[C@H](CCCCN)NC(=O)[C@H](CCCN=C(N)N)NC(=O)[C@H](Cc1ccccc1)NC(=O)[C@@H](N)CC(C)C)C(=O)N[C@@H](CCCCN)C(=O)N[C@@H](Cc1c[nH]c2ccccc12)C(=O)O` [LFRKQLKW], the MIC in assay [1] came to 1.79 µM (≈ 2 µg/mL).
